In ChEMBL document CHEMBL3507680, “University of Dundee, Gates Library screen for HepG2 cell viability”:

Assay: Human HepG2 cell viability assay in 384 well format
Assay type: toxicity, cell-based
Design: dose 125 nL, time 70.5 hour; cytotoxicity at 70.5 h: concentration not given beside the values
Settings: HepG2 cells, read-out: Inhibition

Row | Compound | cytotoxicity at 70.5 h [%]
1 | Cc1oncc1C(=O)N[C@@H]1CN(Cc2ccco2)C[C@@H]2CCCO[C@@H]21 | -3.33
2 | Cc1cccc(C(=O)N2CCn3c(CN4CCN(C)CC4)cnc3C2)n1 | -7.95
3 | O=C(c1ccco1)N1CCCC2(CN(Cc3cccs3)CCO2)C1 (stereo unspecified) | 1.5
4 | CCOCC1CN(C(=O)c2cccnc2)Cc2cnn(C)c21 (stereo unspecified) | -9.4
5 | CSCC[C@H]1CN2CCC[C@H]2CN1Cc1coc2ccc(C)cc2c1=O | 1.94
6 | CC1(C)CN(C(=O)CCc2nc(-c3ccncc3)no2)CCO1 | -12
7 | CCOC(C)C(=O)NCc1cccc(CN2CCCCCC2)c1 (stereo unspecified) | -2.85
8 | CC(C)N(C)[C@@H]1CCN(S(C)(=O)=O)[C@H]1Cc1ccccc1 | -3.3
9 | Cc1cccc(NC(=O)c2ccc(-n3cncn3)nn2)n1 | -1.44
10 | Cc1nn(C)c2cnn(CC(=O)NCCc3ccccc3)c12 | -6.1
11 | Cc1c(C(=O)N2CCCC(O)(CN(C)C)CC2)c2cc(O)ccc2n1C (stereo unspecified) | 13.3
12 | Cc1ccsc1CNC(=O)c1ccc2c(c1)CCC(=O)N2 | 16.1
13 | CC(C)CCNC(=O)NC(C)c1nncn1C (stereo unspecified) | 22
14 | Cc1cc(NC(=O)CN2CCCC2Cn2nc(C)nc2C)on1 (stereo unspecified) | -6.45
15 | Cc1cc(NC(=O)Cn2ncc(Br)c2C)no1 | -2.58
16 | CCOC(=O)C1CN(C(=O)C2CCOCC2)Cc2ncn(CC)c21 (stereo unspecified) | -3.55
17 | CC(C)n1ccnc1C1CCN(C(=O)N2CCCC2)CC1 | -9.54
18 | O=c1[nH]c2ccc(S(=O)(=O)N(CCO)Cc3ccncc3)cc2[nH]1 | -4.4
19 | CN(CCc1noc(C2CC2)n1)C(=O)CN1C(=O)COc2ccccc21 | -4.64
20 | CC(NC(=O)CN1CCCC1=O)c1ccc(Cl)s1 (stereo unspecified) | -9.58
21 | N#Cc1cn(CC(=O)NC2CC2)c2ccc(Br)cc2c1=O | -7.46

Row | Compound | cytotoxicity at 70.5 h [%]
22 | COc1ccc(F)cc1CN(CC(N)=O)C(C)C | -3.68
23 | Cc1nc(C2(NCc3ccc(C#N)cc3F)CCCCC2)no1 | -1.37
24 | NCCC(=O)NCC1(O)CCCN(c2ccnc3cccnc23)C1 (stereo unspecified) | -3.53
25 | COCc1nnn2c1CN(C(=O)c1c[nH]cn1)CCC2 | 0.823
26 | CC(C)C(NC(=O)C1CCCC1)c1cc(O)nc(-c2cccnc2)n1 (stereo unspecified) | 11
27 | CS(=O)(=O)c1ccc(C(=O)N2CCCC(n3ccnc3)C2)cc1 (stereo unspecified) | -10.2
28 | O=C(N1CCCC1)N1CCC(c2nccn2Cc2cscn2)CC1 | -5.23
29 | O=C(NS(=O)(=O)Cc1ccc(F)cc1)C1CCOc2ccccc21 (stereo unspecified) | -9.19
30 | Cc1cccc(CN2CCC(c3nnsc3S(C)(=O)=O)CC2)c1 | -5.38
31 | CC(C)[C@H]1CN(Cc2ccccn2)C[C@@H]1NS(=O)(=O)C1CC1 | -3.34
32 | O=C(CCn1cccn1)NCCOc1cccc(Cl)c1 | -7.23
33 | CCOC(=O)C1CC2(CCCC2)N2CCC(=O)N12 (stereo unspecified) | 0.137
34 | O=C(Cn1nc(-c2ccc(F)cc2)oc1=O)Nc1ccccc1 | 13.9
35 | O=C(O)c1ccc(CN2CCC(c3ccnc4ccnn34)CC2)cc1 | -12
36 | CNC(=O)c1cc2c(nc1NCC(C)C)CCN(c1ccncn1)CC2 | -0.746
37 | CC(C)(C)c1ncc2c(n1)CN(c1cc(NCCO)nc(N)n1)C2 | -12
38 | CCSC1=Nc2c(cnn2-c2ccc(Cl)cc2)C2=NCCCN12 | -7.4
39 | COCCCNC(=O)CN(C)C1CCCN(c2cccnn2)C1 (stereo unspecified) | -6.82
40 | Cn1cc(CN2CCC3(CC2)CN(c2cccnc2)C(=O)CO3)cn1 | -5.12
41 | O=C(CC1CC1)NCc1cn2c(n1)CN(C(=O)c1cccnc1)CC2 | -7.69
42 | Cc1ccc(CNc2ccn(CCC(N)=O)n2)c(Br)c1 | 8.15

Row | Compound | cytotoxicity at 70.5 h [%]
43 | CC(C)N1CCC[C@H]1C(=O)NCC1CCN(c2cnn(C)c(=O)c2)CC1 | -8.1
44 | CCOc1ccccc1C(C(=O)O)N(C)Cc1cc(C)[nH]n1 (stereo unspecified) | -5.35
45 | COCC1CN(Cc2ccc3c(c2)OCO3)Cc2ncn(C)c21 (stereo unspecified) | -12.8
46 | Cc1cnc(N)nc1N1CCN(CCCO)CC1 | -10.3
47 | O=C(CCSc1ccccc1F)NCc1cccnc1 | -8.87
48 | O=C(c1c[nH]cn1)N1CCC(F)(F)C2(CCN(c3ncccn3)C2)C1 (stereo unspecified) | -5.46
49 | Cc1nc(COC[C@H]2CC[C@H]3[C@H](CCN3C(N)=O)O2)cs1 | -1.77
50 | COc1ccc(CC(=O)N(C)c2cccnc2N(C)C)c(Cl)c1 | -1.15
51 | Cn1cc(S(=O)(=O)N(CC(F)(F)F)C2CC2)cc1C(N)=O | -4.65
52 | O=C1CC[C@H](C(=O)Nc2cnn(-c3ccccc3Br)c2)N1 | -16.8
53 | Cc1ccc(-c2cc(C)nc(C3CCCN3S(C)(=O)=O)n2)cc1 (stereo unspecified) | -8.04
54 | O=C(N1CCOCC1)N1CCCC2(CCCNC2)C1 (stereo unspecified) | 8.83
55 | CC(C)c1ccc(OCCC(=O)N2CCC(CC(N)=O)CC2)cc1 | -3.31
56 | Cc1c[nH]c(CN(C)C(C(=O)O)c2c(F)cccc2Cl)n1 (stereo unspecified) | 1.26
57 | COc1ccccc1CC(=O)NCc1c(C)nc2cc(=O)[nH]n2c1C | -8.5
58 | O=C(C1CCOCC1)N1CCc2ncnc(-c3ccc(F)cc3)c2CC1 | -11.3
59 | CC(C)C(NC(=O)c1ccc(Cl)cc1Cl)C(=O)Nc1cnn(C)c1 (stereo unspecified) | 4.14
60 | O=C(NC[C@]12COC[C@H]1CN(Cc1nccs1)C2)N1CCCC1 | -13.4
61 | N#Cc1ccc(CN2CCN(Cc3ccncc3Cl)CC2=O)cc1 | 2.38
62 | CNC(=O)c1cc2c(nc1NCC(C)C)CCN(S(C)(=O)=O)CC2 | -5.11
63 | CNc1ncc(C(=O)N2CCC(CCc3ccccc3)CC2)cn1 | 13.7

Row | Compound | cytotoxicity at 70.5 h [%]
64 | N[C@H]1CN(C(=O)Cc2cc(F)cc(Cl)c2)C[C@@H]1C1CC1 | -3.32
65 | CCOCC1CN(Cc2ccc(F)cc2)Cc2nn(C)cc21 (stereo unspecified) | -11.9
66 | CCOc1cccc(C2CC(=O)NCc3nc(N4CCCC4)sc32)c1 (stereo unspecified) | -3
67 | COc1ccc2c(c1)OCC(CNC(=O)CCc1c(C)n[nH]c1C)C2 (stereo unspecified) | -1.4
68 | O=C(NCCc1cccc(Cl)c1)C1CCOCC1 | 0.784
69 | Cc1cccc(OCCC(=O)N2CCN(CC(=O)NC3CC3)CC2)c1C | -11.9
70 | COc1ncc(C)cc1NC(=O)CCc1ccccn1 | 17.6
71 | Cc1nccn1C1CCCN(C(=O)c2cnc[nH]2)C1 (stereo unspecified) | -0.305
72 | O=C(NCc1ccncc1)N1CCSCC1c1ccc(Cl)cc1 (stereo unspecified) | 3.04
73 | CC(C)N(C)CCC(=O)N1CCCC(c2ccc(C(=O)O)cc2)C1 (stereo unspecified) | -7.94
74 | Cc1cc(N2CCC(C(=O)N(C)C)CC2)nc(-c2ccncc2)n1 | 3.79
75 | Cc1ccsc1CN1C[C@@H]2COC[C@]2(COCC(=O)N(C)C)C1 | -0.655
76 | CCN(CC)S(=O)(=O)c1ccc(CNC(=O)c2cc(C)on2)cc1 | -2.55
77 | Cc1noc(C)c1CN1C(=O)[C@H]2CC[C@@H]1CN(Cc1ccc(Cl)cc1)C2 | 8.52
78 | O=C1NC2(CCNCC2)CC1c1ccccc1 (stereo unspecified) | 30.9
79 | COc1cnc(C2(O)CCN(C(=O)c3cccnc3)CC2)c(OC)n1 | -4.88
80 | CC(C)N1CCOCC2(CN(Cc3ccco3)CCO2)C1 (stereo unspecified) | -8.16
81 | CSCc1nc(CCNC(=O)C(N)c2c(C)n[nH]c2C)cs1 (stereo unspecified) | -3.99
